Patent US7875619B2, “Hetero substituted sodium channel blockers” (Parion Sciences, Inc., priority 2004, dated 2011)
Where a name gives a salt, the structure may show the parent alone.

Assays:
[1] = target: T1, sodium channel (ENaC), canine bronchial epithelia (Canis lupus familiaris, UniProt A0A8I3MKE6+A0A8I3Q679+Q95165); experiment: In vitro measure of sodium channel blocking activity: inhibition of short circuit current (ISC) in airway epithelial monolayers in Ussing chambers; type: cell-based; conditions: mean of N runs; for Fold Amiloride** (PSA 4022 = 100) Mean: relative potency for PSA 4022 = 100 using EC50 from PSA 4022 in same run
T1 construct: endogenous in cells; host or cells: primary canine bronchial epithelial cells cultured at air-liquid interface, mounted in Ussing chambers
T1 sequence (A0A8I3Q679 1-649): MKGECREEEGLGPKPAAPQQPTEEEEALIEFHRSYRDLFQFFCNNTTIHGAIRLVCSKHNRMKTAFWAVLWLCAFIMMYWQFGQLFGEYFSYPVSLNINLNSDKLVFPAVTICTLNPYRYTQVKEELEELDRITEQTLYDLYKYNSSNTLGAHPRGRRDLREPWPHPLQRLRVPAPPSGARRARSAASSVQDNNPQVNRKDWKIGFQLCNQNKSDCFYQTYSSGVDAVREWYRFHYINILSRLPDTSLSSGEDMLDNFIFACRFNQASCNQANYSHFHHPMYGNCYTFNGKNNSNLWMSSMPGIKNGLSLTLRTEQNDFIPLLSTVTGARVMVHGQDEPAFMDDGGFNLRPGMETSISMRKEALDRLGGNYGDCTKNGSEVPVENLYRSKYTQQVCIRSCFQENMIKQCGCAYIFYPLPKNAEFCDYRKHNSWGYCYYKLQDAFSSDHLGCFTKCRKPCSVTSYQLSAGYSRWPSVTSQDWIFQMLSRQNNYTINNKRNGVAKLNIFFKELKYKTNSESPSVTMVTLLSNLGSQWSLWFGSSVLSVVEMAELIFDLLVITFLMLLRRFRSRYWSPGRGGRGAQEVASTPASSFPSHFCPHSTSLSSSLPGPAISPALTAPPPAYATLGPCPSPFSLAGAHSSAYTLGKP
T1 sequence (Q95165 1-641): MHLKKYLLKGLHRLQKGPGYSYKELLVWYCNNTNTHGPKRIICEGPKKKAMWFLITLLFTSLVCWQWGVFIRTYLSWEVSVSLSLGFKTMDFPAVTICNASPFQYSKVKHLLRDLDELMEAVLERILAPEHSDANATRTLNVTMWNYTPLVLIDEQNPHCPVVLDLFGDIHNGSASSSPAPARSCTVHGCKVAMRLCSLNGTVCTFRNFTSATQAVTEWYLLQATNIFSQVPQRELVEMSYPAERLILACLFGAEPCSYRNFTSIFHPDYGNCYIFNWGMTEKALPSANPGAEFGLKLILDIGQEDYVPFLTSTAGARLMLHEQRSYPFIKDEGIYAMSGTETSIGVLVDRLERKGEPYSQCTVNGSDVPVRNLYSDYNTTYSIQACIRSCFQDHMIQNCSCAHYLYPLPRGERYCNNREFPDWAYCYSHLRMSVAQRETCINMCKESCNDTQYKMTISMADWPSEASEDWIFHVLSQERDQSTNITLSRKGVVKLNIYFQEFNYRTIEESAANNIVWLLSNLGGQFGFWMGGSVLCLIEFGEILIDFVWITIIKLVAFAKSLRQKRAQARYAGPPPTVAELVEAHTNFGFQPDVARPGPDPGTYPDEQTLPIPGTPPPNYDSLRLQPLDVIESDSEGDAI
T1 sequence (A0A8I3MKE6 1-646): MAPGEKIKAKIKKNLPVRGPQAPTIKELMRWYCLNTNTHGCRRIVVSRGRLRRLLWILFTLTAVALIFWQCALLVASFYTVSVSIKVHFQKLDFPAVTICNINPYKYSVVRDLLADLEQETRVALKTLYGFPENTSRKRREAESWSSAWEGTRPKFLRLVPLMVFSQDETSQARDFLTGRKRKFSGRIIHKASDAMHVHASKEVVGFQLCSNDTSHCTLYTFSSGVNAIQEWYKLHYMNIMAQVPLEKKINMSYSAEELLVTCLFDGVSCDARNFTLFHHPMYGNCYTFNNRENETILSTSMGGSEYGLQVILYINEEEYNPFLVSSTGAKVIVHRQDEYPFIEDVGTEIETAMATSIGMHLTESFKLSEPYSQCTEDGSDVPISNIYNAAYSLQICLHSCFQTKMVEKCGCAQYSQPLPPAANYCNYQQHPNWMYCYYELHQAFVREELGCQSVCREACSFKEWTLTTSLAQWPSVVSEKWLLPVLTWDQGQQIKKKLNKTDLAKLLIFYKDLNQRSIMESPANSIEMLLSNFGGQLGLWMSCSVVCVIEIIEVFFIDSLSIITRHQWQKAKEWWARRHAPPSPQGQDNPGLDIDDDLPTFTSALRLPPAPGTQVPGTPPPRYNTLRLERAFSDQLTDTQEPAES
Description: One assay used to assess mechanism of action and/or potency of the compounds of the present invention involves the determination of lumenal drug inhibition of airway epithelial sodium currents measured under short circuit current (ISC) using airway epithelial monolayers mounted in Ussing chambers. Cells obtained from freshly excised human, dog, sheep or rodent airways are seeded onto porous 0.4 micron Snapwell™ Inserts (CoStar), cultured at air-liquid interface (ALI) conditions in hormonally defined media, and assayed for sodium transport activity (ISC) while bathed in Krebs Bicarbonate Ringer (KBR) in Using chambers. All test drug additions are to the lumenal bath with half-log dose addition protocols (from 1×10^−11 M to 3×10^−5M), and the cumulative change in ISC (inhibition) recorded. All drugs are prepared in dimethyl sulfoxide as stock solutions at a concentration of 1×10^−2 M and stored at −20° C. […] After the maximal concentration (5×10^−5 M) is administered, the lumenal bath is exchanged three times with fresh drug-free KBR solution, and the resultant ISC measured after each wash for approximately 5 minutes in duration. Reversibility is defined as the percent return to the baseline value for sodium current after the third wash. All data from the voltage clamps are collected via a computer interface and analyzed off-line.
Dose-effect relationships for all compounds are considered and analyzed by the Prism 3.0 program.
PSA 4022 was also tested in each assay as a positive control.

Compound: COC(=O)[C@H](N)CCCc1ccc(CCCCNC(=N)NC(=O)c2nc(Cl)c(N)nc2N)cc1 [PSA 19603, 2-(R)-amino-5-(4-{4-[N′-(3,5-diamino-6-chloropyrazine-2-carbonyl)-guanidino]butyl}phenyl)pentanoic acid methyl ester]
- EC50 [1]: 32.3 nM
- Fold Amiloride** (PSA 4022 = 100) Mean [1]: 39.4
- melting point: 76 to 79 °C

Compound: N=C(NCCCCc1ccc(OCCNCC(N)C(N)=O)cc1)NC(=O)c1nc(Cl)c(N)nc1N (stereo not shown) (as salt: hydrochloride) [PSA 18704, 2-amino-3-[2-(4-{4-[N′-(3,5-diamino-6-chloropyrazine-2-carbonyl)-guanidino]butyl}phenoxy)ethylamino]propionamide tri-hydrochloride]
- melting point: 160 °C

Compound: COC(=O)C(N)CCOc1ccc(CCCCNC(=N)NC(=O)c2nc(Cl)c(N)nc2N)cc1 (stereo not shown) (as salt: hydrochloride) [PSA 17587, 2-amino-4-(4-{4-[N′-(3,5-diamino-6-chloropyrazine-2-carbonyl)-guanidino]butyl}phenoxy)butyric acid methyl ester hydrochloride]
- melting point: 88 to 90 °C

Compound: N=C(NCCCCc1ccc(CCC[C@@H](N)C(=O)O)cc1)NC(=O)c1nc(Cl)c(N)nc1N [PSA 23184, 2-(R)-amino-5-(4-{4-[N′-(3,5-diamino-6-chloropyrazine-2-carbonyl)-guanidino]butyl}phenyl)pentanoic acid]
- EC50 [1]: 17 nM
- Fold Amiloride** (PSA 4022 = 100) Mean [1]: 43.3
- melting point: 190 to 192 °C (dec.)

Compound: COC(=O)C(N)CCOc1ccc(CCCCNC(=N)NC(=O)c2nc(Cl)c(N)nc2N)cc1 (stereo not shown) [PSA 17587, 2-amino-4-(4-{4-[N′-(3,5-diamino-6-chloropyrazine-2-carbonyl)-guanidino]butyl}phenoxy)butyric acid methyl ester hydrochloride]
- EC50 [1]: 19.4 nM
- Fold Amiloride** (PSA 4022 = 100) Mean [1]: 31.3

Compound: N=C(NCCCCc1ccc(N(CCN(C[C@H](O)CO)C[C@H](O)CO)C[C@H](O)CO)cc1)NC(=O)c1nc(Cl)c(N)nc1N [PSA 16311, N-(4{4-[{2-[N,N-bis-((2S)-2,3-dihydroxypropyl)amino]ethyl}-N-((2S)-2,3-dihydroxypropyl)amino]phenyl}butyl)-N′-(3,5-diamino-6-chloropyrazine-2-carbonyl)guanidine]
- EC50 [1]: 33.2 nM
- Fold Amiloride** (PSA 4022 = 100) Mean [1]: 25.6

Compound: N=C(NCCCCc1ccc(NC(=O)CCN)cc1)NC(=O)c1nc(Cl)c(N)nc1N [PSA 14568, dihydrochloride]
- EC50 [1]: 3.92 nM
- Fold Amiloride** (PSA 4022 = 100) Mean [1]: 131

Compound: C[N+](C)(C)CCOc1ccc(CCCCNC(=N)NC(=O)c2nc(Cl)c(N)nc2N)cc1.Cl.[Cl-] [PSA 11223, N-(3,5-diamino-6-chloropyrazine-2-carbonyl)-N′-{4-[4-(2-chlorotrimethylammonium)ethoxyphenyl]butyl}guanidine hydrochloride]
- EC50 [1]: 14.7 nM
- Fold Amiloride** (PSA 4022 = 100) Mean [1]: 79.6

Compound: N=C(NCCCCc1ccc(OCCC(N)C(=O)O)cc1)NC(=O)c1nc(Cl)c(N)nc1N (stereo not shown) [PSA 17666, 2-amino-4-(4-{4-[N′-(3,5-diamino-6-chloropyrazine-2-carbonyl)-guanidino]butyl}phenoxy)butyric acid]
- EC50 [1]: 29.3 nM
- Fold Amiloride** (PSA 4022 = 100) Mean [1]: 34.8
- melting point: 178 to 180 °C
